Measurements reported in PMC9851200, “Multiparameter phenotypic screening for endogenous TFEB and TFE3 translocation identifies novel chemical series modulating lysosome function” (Autophagy, 2022).

Key:
Assay type in all cases: binding
[1] = molecular target: kinases (KINOMEscan panel) (Homo sapiens, UniProt P31749); settings: kinase AKT1; NEW KINOMEscan
[2] = molecular target: kinases (KINOMEscan panel) (Homo sapiens, UniProt P27448); settings: MARK3; NEW KINOMEscan
[3] = molecular target: kinases (KINOMEscan panel) (Homo sapiens, UniProt Q9UM73, C1156Y); settings: kinase ALK(C1156Y); NEW KINOMEscan
[4] = molecular target: kinases (KINOMEscan panel) (Homo sapiens, UniProt Q9UM73, L1196M); settings: kinase ALK(L1196M); NEW KINOMEscan
[5] = molecular target: T1, kinases (KINOMEscan panel) (Homo sapiens, UniProt Q9NWZ3); settings: IRAK4; NEW KINOMEscan
T1 sequence (Q9NWZ3 1-460): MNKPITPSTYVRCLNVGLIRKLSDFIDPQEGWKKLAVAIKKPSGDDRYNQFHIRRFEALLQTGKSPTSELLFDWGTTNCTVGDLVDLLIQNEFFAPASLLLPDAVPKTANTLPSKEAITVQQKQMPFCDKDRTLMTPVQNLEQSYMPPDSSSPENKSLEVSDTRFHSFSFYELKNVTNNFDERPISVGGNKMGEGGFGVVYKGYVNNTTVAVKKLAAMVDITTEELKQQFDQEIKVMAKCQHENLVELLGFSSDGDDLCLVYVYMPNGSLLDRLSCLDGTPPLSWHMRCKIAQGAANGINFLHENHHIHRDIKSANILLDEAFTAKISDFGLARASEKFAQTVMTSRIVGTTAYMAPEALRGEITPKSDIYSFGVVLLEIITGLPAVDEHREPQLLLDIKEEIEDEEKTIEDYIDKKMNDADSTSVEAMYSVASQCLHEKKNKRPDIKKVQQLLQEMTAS

[6] = molecular target: kinases (KINOMEscan panel) (Homo sapiens, UniProt P00519, M351T); settings: kinase ABL1(M351T)-phosphorylated; NEW KINOMEscan
[7] = molecular target: kinases (KINOMEscan panel) (Homo sapiens, UniProt P68400); settings: CSNK2A1; NEW KINOMEscan
Sequence of kinases (KINOMEscan panel) (Homo sapiens, UniProt P68400) (P68400 whole entry): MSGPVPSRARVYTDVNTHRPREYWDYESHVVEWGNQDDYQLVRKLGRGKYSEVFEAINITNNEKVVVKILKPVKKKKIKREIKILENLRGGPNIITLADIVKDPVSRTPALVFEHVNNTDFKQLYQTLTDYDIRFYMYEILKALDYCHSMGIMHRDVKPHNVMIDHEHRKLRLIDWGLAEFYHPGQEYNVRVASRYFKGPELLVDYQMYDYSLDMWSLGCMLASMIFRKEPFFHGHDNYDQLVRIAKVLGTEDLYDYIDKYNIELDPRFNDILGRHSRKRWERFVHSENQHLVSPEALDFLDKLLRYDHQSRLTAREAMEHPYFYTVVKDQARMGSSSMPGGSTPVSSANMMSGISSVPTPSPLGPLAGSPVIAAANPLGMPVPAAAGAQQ

[8] = molecular target: kinases (KINOMEscan panel) (Homo sapiens, UniProt Q13554); settings: kinase CAMK2B; NEW KINOMEscan
[9] = molecular target: kinases (KINOMEscan panel) (Homo sapiens, UniProt P51617); settings: kinase IRAK1; NEW KINOMEscan
[10] = molecular target: kinases (KINOMEscan panel) (Homo sapiens, UniProt P24723); settings: kinase PRKCH; NEW KINOMEscan
[11] = molecular target: T2, kinases (KINOMEscan panel) (Homo sapiens, UniProt Q8NE63); settings: kinase HIPK4; NEW KINOMEscan
T2 sequence (Q8NE63 1-616): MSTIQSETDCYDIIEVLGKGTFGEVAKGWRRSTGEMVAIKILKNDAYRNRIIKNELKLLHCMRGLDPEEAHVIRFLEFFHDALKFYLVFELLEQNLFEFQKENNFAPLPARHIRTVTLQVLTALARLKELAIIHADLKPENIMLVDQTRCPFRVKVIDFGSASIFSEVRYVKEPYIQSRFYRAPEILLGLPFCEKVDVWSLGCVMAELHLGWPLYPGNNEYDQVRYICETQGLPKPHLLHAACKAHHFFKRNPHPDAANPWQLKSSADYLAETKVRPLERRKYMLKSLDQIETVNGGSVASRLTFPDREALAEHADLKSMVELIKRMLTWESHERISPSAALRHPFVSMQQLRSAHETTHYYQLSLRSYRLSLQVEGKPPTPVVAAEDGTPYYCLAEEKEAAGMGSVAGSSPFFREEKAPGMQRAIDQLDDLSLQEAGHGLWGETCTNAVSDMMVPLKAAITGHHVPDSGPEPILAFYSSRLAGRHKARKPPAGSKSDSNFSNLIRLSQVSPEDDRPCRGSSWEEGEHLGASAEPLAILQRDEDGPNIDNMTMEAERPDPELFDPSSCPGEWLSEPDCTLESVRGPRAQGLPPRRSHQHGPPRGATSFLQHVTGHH

[12] = molecular target: kinases (KINOMEscan panel) (Homo sapiens, UniProt Q9P1W9); settings: PIM2; NEW KINOMEscan
Sequence of kinases (KINOMEscan panel) (Homo sapiens, UniProt Q9P1W9) (Q9P1W9 whole entry): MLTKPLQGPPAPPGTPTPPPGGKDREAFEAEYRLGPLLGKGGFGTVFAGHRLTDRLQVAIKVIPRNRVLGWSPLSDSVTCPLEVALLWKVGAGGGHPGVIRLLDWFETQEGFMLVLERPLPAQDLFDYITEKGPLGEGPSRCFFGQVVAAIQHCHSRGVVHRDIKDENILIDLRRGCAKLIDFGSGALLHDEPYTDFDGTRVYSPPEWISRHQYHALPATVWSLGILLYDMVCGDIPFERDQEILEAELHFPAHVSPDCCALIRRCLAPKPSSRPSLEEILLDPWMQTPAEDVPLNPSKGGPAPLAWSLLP

[13] = molecular target: kinases (KINOMEscan panel) (Homo sapiens, UniProt Q9Y243); settings: kinase AKT3; NEW KINOMEscan
Sequence of kinases (KINOMEscan panel) (Homo sapiens, UniProt Q9Y243) (Q9Y243 whole entry): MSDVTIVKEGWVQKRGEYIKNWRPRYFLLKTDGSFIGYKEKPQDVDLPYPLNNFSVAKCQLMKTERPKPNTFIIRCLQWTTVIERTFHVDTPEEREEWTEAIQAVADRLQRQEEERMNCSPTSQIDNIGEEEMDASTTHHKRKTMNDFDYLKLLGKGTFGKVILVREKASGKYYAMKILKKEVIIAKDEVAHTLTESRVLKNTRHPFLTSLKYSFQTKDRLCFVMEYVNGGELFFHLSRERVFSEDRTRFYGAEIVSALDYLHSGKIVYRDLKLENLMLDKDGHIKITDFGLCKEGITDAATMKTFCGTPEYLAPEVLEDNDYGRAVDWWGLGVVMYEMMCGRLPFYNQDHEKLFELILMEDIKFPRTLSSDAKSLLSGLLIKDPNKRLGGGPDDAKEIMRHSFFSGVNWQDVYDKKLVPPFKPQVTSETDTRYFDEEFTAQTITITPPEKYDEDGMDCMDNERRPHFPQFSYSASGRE

[14] = molecular target: kinases (KINOMEscan panel) (Homo sapiens, UniProt P09619); settings: NEW KINOMEscan
Sequence of kinases (KINOMEscan panel) (Homo sapiens, UniProt P09619) (P09619 33-1106): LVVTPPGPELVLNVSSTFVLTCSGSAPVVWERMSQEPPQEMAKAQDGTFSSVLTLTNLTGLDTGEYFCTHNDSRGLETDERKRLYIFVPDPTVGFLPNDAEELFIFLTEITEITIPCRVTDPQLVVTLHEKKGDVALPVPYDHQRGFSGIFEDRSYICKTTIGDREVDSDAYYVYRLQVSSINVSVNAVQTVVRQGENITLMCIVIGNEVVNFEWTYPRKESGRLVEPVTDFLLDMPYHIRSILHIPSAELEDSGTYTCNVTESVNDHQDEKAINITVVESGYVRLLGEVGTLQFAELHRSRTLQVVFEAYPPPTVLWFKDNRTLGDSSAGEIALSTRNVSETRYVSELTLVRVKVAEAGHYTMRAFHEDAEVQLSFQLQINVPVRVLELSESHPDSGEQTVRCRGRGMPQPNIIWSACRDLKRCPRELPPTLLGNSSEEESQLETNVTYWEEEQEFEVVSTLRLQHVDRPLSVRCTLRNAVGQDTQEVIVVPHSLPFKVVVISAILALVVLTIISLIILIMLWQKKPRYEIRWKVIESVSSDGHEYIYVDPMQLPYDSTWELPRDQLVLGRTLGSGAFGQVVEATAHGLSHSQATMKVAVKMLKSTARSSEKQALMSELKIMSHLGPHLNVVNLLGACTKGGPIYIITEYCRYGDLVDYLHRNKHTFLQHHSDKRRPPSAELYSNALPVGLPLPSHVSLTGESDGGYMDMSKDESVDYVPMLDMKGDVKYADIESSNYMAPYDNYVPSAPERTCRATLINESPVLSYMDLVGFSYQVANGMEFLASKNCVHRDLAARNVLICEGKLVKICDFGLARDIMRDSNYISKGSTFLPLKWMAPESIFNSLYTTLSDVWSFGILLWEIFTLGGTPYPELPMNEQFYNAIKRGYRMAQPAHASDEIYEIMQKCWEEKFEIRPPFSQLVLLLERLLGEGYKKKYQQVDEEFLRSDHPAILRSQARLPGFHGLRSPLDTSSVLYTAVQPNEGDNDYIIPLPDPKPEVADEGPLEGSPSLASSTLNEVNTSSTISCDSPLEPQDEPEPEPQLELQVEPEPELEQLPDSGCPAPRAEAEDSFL

[15] = molecular target: kinases (KINOMEscan panel) (Homo sapiens, UniProt Q9BYP7); settings: NEW KINOMEscan
Sequence of kinases (KINOMEscan panel) (Homo sapiens, UniProt Q9BYP7) (Q9BYP7 whole entry): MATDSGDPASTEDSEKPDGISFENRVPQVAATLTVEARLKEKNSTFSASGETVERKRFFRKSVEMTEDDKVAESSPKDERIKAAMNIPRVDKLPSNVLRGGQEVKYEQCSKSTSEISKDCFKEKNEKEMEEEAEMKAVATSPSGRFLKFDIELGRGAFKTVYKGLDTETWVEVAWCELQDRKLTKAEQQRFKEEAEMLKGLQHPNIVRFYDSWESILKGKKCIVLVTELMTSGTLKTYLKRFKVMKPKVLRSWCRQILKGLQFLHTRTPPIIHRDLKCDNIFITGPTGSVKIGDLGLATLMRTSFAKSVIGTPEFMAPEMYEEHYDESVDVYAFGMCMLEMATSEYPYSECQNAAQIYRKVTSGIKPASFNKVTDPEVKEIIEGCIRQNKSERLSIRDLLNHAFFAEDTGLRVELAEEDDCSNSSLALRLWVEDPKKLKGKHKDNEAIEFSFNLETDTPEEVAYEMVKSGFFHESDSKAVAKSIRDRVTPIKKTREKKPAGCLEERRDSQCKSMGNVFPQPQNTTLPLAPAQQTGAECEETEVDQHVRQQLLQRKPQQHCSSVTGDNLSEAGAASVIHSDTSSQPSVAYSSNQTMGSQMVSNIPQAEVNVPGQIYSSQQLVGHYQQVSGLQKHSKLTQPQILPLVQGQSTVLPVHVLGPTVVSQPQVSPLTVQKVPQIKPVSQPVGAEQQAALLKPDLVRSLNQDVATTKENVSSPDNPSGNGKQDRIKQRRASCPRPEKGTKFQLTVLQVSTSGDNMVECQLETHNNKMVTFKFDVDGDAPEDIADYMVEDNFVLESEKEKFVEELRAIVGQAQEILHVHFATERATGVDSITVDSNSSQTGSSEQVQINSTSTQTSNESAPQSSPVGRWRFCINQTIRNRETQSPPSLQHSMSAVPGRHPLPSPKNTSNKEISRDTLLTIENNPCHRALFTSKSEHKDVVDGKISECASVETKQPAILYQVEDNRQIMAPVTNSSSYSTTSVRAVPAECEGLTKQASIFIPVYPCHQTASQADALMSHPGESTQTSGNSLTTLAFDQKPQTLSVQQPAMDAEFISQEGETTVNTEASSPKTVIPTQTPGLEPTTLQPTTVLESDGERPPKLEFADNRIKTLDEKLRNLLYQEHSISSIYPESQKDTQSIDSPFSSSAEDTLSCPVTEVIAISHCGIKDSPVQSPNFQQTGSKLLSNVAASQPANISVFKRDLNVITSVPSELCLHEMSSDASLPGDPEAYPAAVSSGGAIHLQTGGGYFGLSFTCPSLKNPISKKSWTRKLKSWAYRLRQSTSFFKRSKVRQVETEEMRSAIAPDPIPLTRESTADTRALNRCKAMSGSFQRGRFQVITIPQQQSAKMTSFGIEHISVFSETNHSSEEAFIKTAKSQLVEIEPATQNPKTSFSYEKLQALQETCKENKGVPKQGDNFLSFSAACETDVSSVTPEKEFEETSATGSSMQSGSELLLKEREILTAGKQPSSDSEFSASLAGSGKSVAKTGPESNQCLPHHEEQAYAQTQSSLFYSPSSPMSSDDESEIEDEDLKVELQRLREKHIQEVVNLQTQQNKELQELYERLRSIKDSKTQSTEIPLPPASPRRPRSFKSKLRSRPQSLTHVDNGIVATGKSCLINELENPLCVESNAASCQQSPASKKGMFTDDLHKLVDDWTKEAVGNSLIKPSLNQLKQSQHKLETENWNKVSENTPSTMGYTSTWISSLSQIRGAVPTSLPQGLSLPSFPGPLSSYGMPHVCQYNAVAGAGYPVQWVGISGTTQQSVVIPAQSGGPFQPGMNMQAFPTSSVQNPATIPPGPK

[16] = molecular target: T3, kinases (KINOMEscan panel) (Homo sapiens, UniProt Q9BXA7); settings: kinase TSSK1B; NEW KINOMEscan
T3 sequence (Q9BXA7 1-367): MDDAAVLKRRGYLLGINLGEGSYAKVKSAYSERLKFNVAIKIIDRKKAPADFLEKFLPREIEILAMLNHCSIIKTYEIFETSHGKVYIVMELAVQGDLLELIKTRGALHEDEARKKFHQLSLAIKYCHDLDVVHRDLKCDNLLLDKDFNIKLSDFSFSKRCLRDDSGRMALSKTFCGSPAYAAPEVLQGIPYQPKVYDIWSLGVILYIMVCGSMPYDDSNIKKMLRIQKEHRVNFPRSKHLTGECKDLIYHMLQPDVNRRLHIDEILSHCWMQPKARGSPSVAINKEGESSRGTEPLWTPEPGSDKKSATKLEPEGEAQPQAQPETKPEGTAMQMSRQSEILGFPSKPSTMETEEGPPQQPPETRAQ

[17] = molecular target: kinases (KINOMEscan panel) (Homo sapiens, UniProt P17612); settings: kinase PRKACA; NEW KINOMEscan

Sequence of kinases (KINOMEscan panel) (Homo sapiens, UniProt P27448) (P27448 whole entry): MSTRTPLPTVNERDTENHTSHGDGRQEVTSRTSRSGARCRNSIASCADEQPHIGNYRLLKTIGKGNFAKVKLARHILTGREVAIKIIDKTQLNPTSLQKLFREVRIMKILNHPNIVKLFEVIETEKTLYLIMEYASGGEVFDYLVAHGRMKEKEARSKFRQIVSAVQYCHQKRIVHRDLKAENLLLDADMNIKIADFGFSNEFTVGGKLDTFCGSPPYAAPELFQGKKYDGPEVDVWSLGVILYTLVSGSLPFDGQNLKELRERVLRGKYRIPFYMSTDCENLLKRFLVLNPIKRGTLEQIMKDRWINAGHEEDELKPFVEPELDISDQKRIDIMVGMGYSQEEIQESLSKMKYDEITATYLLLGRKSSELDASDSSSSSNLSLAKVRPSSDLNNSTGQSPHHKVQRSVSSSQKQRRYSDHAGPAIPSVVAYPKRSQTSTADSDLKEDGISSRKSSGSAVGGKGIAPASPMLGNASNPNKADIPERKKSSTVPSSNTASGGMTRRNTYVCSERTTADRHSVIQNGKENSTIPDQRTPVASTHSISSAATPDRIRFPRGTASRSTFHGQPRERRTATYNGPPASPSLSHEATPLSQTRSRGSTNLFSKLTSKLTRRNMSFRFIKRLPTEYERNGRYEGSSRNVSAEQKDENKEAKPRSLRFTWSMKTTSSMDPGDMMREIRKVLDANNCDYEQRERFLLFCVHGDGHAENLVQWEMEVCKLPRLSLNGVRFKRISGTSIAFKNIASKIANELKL

Compound | KINOMEscan AKT1 [1] | KINOMEscan MARK3 [2] | KINOMEscan ALK(C1156Y) [3] | KINOMEscan ALK(L1196M) [4] | KINOMEscan IRAK4 [5] | KINOMEscan ABL1(M351T)-phosphorylated [6] | KINOMEscan CSNK2A1 [7] | KINOMEscan CAMK2B [8] | KINOMEscan IRAK1 [9] | KINOMEscan PRKCH [10] | KINOMEscan HIPK4 [11] | KINOMEscan PIM2 [12] | KINOMEscan AKT3 [13] | KINOMEscan PDGFRB [14] | KINOMEscan WNK3 [15] | KINOMEscan TSSK1B [16] | KINOMEscan PRKACA [17]
Cc1cccc(-c2nc(N(C)c3ccc4ncsc4c3)c3ccccc3n2)n1 [NK-161] | 17 | 0 | 2 | 0 | 0 | 0 | 19 | 0 | 0 | 8 | 25 | 18 | 0 | 21 | 28 | 11 | 17
Cc1cccc(-c2nc(Nc3ccc4nn(C)cc4c3)c3ccccc3n2)n1 [NK167] | 10 | 0 | 11 | 0 | 0 | 0 | 0 | 0 | 0 | 21 | 7 | 2 | 0 | 19 | 0 | 15 | 12
